{
  "source": "ChEMBL document CHEMBL1151499",
  "about": "“Synthesis of a piperidinomethylthiophene derivative as H2-antagonist with inhibitory activity against Helicobacter pylori” (Bioorg Med Chem Lett, 1996)",
  "format_in_all_cases": "functional",
  "key": {"Helicobacter pylori": {"system": "Helicobacter pylori", "assay": "Compound was tested for inhibitory activity against Helicobacter pylori No. 9470"}, "Histamine H2 receptor": {"molecular_target": "Histamine H2 receptor (Cavia porcellus, UniProt P47747)", "sequence (P47747 whole entry)": "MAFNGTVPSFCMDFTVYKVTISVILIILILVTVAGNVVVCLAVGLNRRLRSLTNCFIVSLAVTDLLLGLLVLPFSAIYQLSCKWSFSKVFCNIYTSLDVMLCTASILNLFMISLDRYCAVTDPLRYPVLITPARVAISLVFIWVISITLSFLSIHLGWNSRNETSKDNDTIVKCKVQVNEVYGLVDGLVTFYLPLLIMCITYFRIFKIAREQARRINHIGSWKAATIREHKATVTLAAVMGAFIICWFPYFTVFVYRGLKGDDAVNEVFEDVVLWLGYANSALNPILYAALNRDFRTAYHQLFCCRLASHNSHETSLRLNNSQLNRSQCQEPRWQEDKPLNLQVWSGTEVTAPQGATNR", "assay": "Histamine H2 receptor antagonistic activity"}, "[1]": {"molecular_target": "Histamine H2 receptor (Cavia porcellus) (UniProt P47747)", "sequence (P47747 whole entry)": "as above", "assay": "Compound was tested for Histamine H2 receptor antagonistic activity at 10 ug/ml"}},
  "note": "pIC50: −log10 of the molar value.",
  "data": [
    {"smiles": "COCC/N=c1\\c(O)c(O)\\c1=N/C/C=C\\COc1csc(CN2CCCCC2)c1", "values": [
      {"measurement": "MIC", "setting": "Helicobacter pylori", "value": "> 100", "unit": "µg/mL"},
      {"measurement": "pIC50", "setting": "Histamine H2 receptor", "value": 5.94}
    ]},
    {"smiles": "CC(C)/N=c1\\c(O)c(O)\\c1=N/C/C=C\\COc1csc(CN2CCCCC2)c1", "values": [
      {"measurement": "MIC", "setting": "Helicobacter pylori", "value": 12.5, "unit": "µg/mL"},
      {"measurement": "pIC50", "setting": "Histamine H2 receptor", "value": 5.71}
    ]},
    {"smiles": "CN/C(=N\\CCSCc1nc[nH]c1C)NC#N", "note": "[CIMETIDINE]", "values": [
      {"measurement": "MIC", "setting": "Helicobacter pylori", "value": "> 100", "unit": "µg/mL"}
    ]},
    {"smiles": "Nc1c(NC/C=C\\COc2csc(CN3CCCCC3)c2)c(=O)c1=O", "values": [
      {"measurement": "MIC", "setting": "Helicobacter pylori", "value": 100, "unit": "µg/mL"},
      {"measurement": "pIC50", "setting": "Histamine H2 receptor", "value": 6.35}
    ]},
    {"smiles": "C=CCNc1c(NC/C=C\\COc2csc(CN3CCCCC3)c2)c(=O)c1=O", "values": [
      {"measurement": "MIC", "setting": "Helicobacter pylori", "value": "> 100", "unit": "µg/mL"},
      {"measurement": "pIC50", "setting": "Histamine H2 receptor", "value": 5.90}
    ]},
    {"smiles": "C/N=c1\\c(O)c(O)\\c1=N/C/C=C\\COc1csc(CN2CCCCC2)c1", "values": [
      {"measurement": "MIC", "setting": "Helicobacter pylori", "value": 12.5, "unit": "µg/mL"},
      {"measurement": "pIC50", "setting": "Histamine H2 receptor", "value": 5.74}
    ]},
    {"smiles": "CC(=O)OCC(=O)NCCCOc1cccc(CN2CCCCC2)c1", "note": "[ROXATIDINE ACETATE]", "values": [
      {"measurement": "MIC", "setting": "Helicobacter pylori", "value": "> 100", "unit": "µg/mL"},
      {"measurement": "pIC50", "setting": "Histamine H2 receptor", "value": 5.39}
    ]},
    {"smiles": "O=c1c(NC/C=C\\COc2csc(CN3CCCCC3)c2)c(NCCF)c1=O", "values": [
      {"measurement": "MIC", "setting": "Helicobacter pylori", "value": 1.56, "unit": "µg/mL"},
      {"measurement": "pIC50", "setting": "Histamine H2 receptor", "value": 5.98}
    ]},
    {"smiles": "O=c1c(NC/C=C\\COc2csc(CN3CCCCC3)c2)c(NCC(F)(F)C(F)(F)F)c1=O", "values": [
      {"measurement": "MIC", "setting": "Helicobacter pylori", "value": 25, "unit": "µg/mL"},
      {"measurement": "inhibition", "setting": "[1]", "value": 43, "unit": "%"}
    ]},
    {"smiles": "O=c1c(NC/C=C\\COc2csc(CN3CCCCC3)c2)c(NCC(F)(F)C(F)(F)C(F)(F)F)c1=O", "values": [
      {"measurement": "MIC", "setting": "Helicobacter pylori", "value": 6.25, "unit": "µg/mL"},
      {"measurement": "inhibition", "setting": "[1]", "value": 39, "unit": "%"}
    ]},
    {"smiles": "N#CCCNc1c(NC/C=C\\COc2csc(CN3CCCCC3)c2)c(=O)c1=O", "values": [
      {"measurement": "MIC", "setting": "Helicobacter pylori", "value": 25, "unit": "µg/mL"},
      {"measurement": "pIC50", "setting": "Histamine H2 receptor", "value": 6.13}
    ]},
    {"smiles": "CN/C(=C/[N+](=O)[O-])NCCSCc1ccc(CN(C)C)o1", "note": "[RANITIDINE]", "values": [
      {"measurement": "MIC", "setting": "Helicobacter pylori", "value": "> 100", "unit": "µg/mL"},
      {"measurement": "pIC50", "setting": "Histamine H2 receptor", "value": 5.48}
    ]},
    {"smiles": "CN(C)CC/N=c1\\c(O)c(O)\\c1=N/C/C=C\\COc1csc(CN2CCCCC2)c1", "values": [
      {"measurement": "MIC", "setting": "Helicobacter pylori", "value": "> 100", "unit": "µg/mL"},
      {"measurement": "pIC50", "setting": "Histamine H2 receptor", "value": 6.09}
    ]},
    {"smiles": "CN(C)Cc1cc(OC/C=C\\C/N=c2\\c(O)c(O)c2=N)cs1", "values": [
      {"measurement": "MIC", "setting": "Helicobacter pylori", "value": 100, "unit": "µg/mL"},
      {"measurement": "pIC50", "setting": "Histamine H2 receptor", "value": 6.16}
    ]}
  ]
}
